The nature of data set [1]: Toxicity in human infected with SARS-CoV2 assessed as adverse events at 1600 mg, po administered twice on day 1 and 600 mg BID on day 2 to 14 and measured after 14 days. As to conditions: in vivo, 336 h, time 14 day. The data set is classed as organism-based.
In data set [2] the test system is SARS-CoV-2. The experiment in a line: Antiviral actvity against SARS-CoV2 infected in human assessed as improvement rate of chest at 1600 mg, po administered twice on day 1 and 600 mg BID on day 2 to 14 and measured after 14 days by computed tomography. The conditions noted are these: time 14 day. The data set is classed as functional, Severe acute respiratory syndrome coronavirus 2.

Data set [3] deals with Zaire ebolavirus. The experiment in a line: Antiviral activity against Zaire Ebola virus infected in African green monkey Vero E6 cells measured after 5 days by immunofocus assay. It is filed as functional, organism-based. The conditions noted are these: Vero C1008, 120 h.
Data set [4] is described as follows: Selectivity index, ratio of CC50 for African green monkey Vero E6 cells to EC50 for 2019-nCoV Beta CoV/Wuhan/WIV04/2019 infected in African green monkey Vero E6 cells. The data set is classed as toxicity, Vero C1008. As to conditions: read-out: Ratio CC50/EC50.
The subject of data set [5] is SARS-CoV-2. The experiment in a line: Antiviral activity against 2019-nCoV BetaCoV/Wuhan/WIV04/2019 infected in African green monkey VeroE6 cells assessed as reduction in viral yield preincubated with virus for 1 hr followed by cell infection and […] by qRT-PCR method. It is filed as functional, organism-based. As to conditions: Severe acute respiratory syndrome coronavirus 2, BetaCoV/Wuhan/WIV04/2019, Vero C1008. Background: Quantitative PCR measures a nucleic acid by following its amplification.

Data set [6] can be described thus: Cytotoxicity against African green monkey Vero E6 cells by the CCK8 assay. As to conditions: chlorocebus sabaeus. It is filed as cell-based, Vero C1008. A general note: Formazan colour is commonly taken as a measure of viable cells.
Data set [7] concerns SARS-CoV-2. Nature of the data set: Antiviral actvity against SARS-CoV2 infected in human assessed as latency time to cough relief at 1600 mg administered twice on day 1 and 600 mg BID for 7 days. It is filed as functional, Severe acute respiratory syndrome coronavirus 2. As to conditions: time 7 day.
Data set [8] has as its system Zaire ebolavirus. Nature of the data set: Antiviral activity against Zaire Ebola virus infected in IFNAR-/- C57BL/6 mouse assessed as mouse survival at 300 mg/kg, po administered twice daily starting from day 6 post infection until day 13 post infection and measured at the end of 3 weeks. The data set is classed as functional.
The subject of data set [9] is SARS-CoV-2. The experiment in a line: Antiviral actvity against SARS-CoV2 infected in human assessed as latency time to pyrexia reduction at 1600 mg administered twice on day 1 and 600 mg BID for 7 days. As to conditions: time 7 day. It is filed as functional, Severe acute respiratory syndrome coronavirus 2.
Data set [10] has as its system SARS-CoV. Nature of the data set: Antiviral actvity against SARS-CoV GZ50 infected in Rhesus macaque FRhK-4 cells assessed as reduction in virus-induced cytopathic effect incubated for 24 to 48 hrs by phase-contrast microscopy. It is filed as functional, organism-based. The conditions noted are these: Severe acute respiratory syndrome-related coronavirus, GZ50, FRhK-4. A general note: Cytopathic effects are the visible damage that an infection or toxin causes in cultured cells.

A short description of data set [11]: Cytotoxicity against Rhesus macaque FRhK-4 cells by MTT assay. The data set is classed as cell-based, Macaca mulatta. As to conditions: rhesus monkey.
A short description of data set [12]: Inhibition of SARS Coronavirus helicase pp1ab domain assessed as reduction in helicase activity using DT20Cy3/Release BHQ oligomers by FRET-based assay. Also on record: species or system Severe acute respiratory syndrome-related coronavirus.
A short description of data set [13]: Inhibition of SARS Coronavirus helicase pp1ab domain assessed as reduction in ATPase activity by phosphomolybdate-malachite green assay. More on the design: species or system Severe acute respiratory syndrome-related coronavirus.
Data set [14] is described as follows: Cytotoxicity against African green monkey Vero E6 cells by the MTS assay. The conditions noted are these: chlorocebus sabaeus. The data set is classed as cell-based, Vero C1008.
In data set [15] the test system is SARS-CoV. The experiment in a line: Antiviral activity against SARS-CoV isolate Frankfurt-1 infected in African green monkey Vero E6 cells incubated for 3 days by MTS assay. It is filed as functional, organism-based. As to conditions: Severe acute respiratory syndrome-related coronavirus, Frankfurt 1, Vero C1008, 72 h.
Data set [16] in a line: Cytotoxicity against human Huh-7 cells incubated for 1 hr by MTS assay. The data set is classed as cell-based.
Data set [17] can be described thus: Cytotoxicity against African green monkey Vero E6 cells incubated for 3 days by the MTS assay. It is filed as cell-based, Vero C1008. The conditions noted are these: chlorocebus sabaeus, time 3 day.
Data set [18] relates to SARS-CoV. Nature of the data set: Antiviral activity against SARS-CoV isolate Frankfurt-1 infected in African green monkey Vero E6 cells incubated for 3 days. As to conditions: Severe acute respiratory syndrome-related coronavirus, Frankfurt 1, Vero C1008, 72 h. It is filed as functional, organism-based.
Data set [19] has as its system Human coronavirus OC43. Nature of the data set: Antiviral activity against wild type HCoV-OC43 infected in BHK-21 cells incubated for 72 hrs by RT-PCR method. The conditions noted are these: Betacoronavirus 1, BHK-21, 72 h. The data set is classed as functional, cell-based.
For data set [20], the system named is SARS-CoV-2. Nature of the data set: Antiviral actvity against SARS-CoV2 infected in human assessed as improvement rate of chest at 400 mg, po administered twice daily cotreated with 100 mg ritonavir and measured after 14 days by computed tomography. It is filed as functional, Severe acute respiratory syndrome coronavirus 2. The conditions noted are these: time 14 day.

Data set [21] is described as follows: Toxicity in human infected with SARS-CoV2 assessed as adverse events at 400 mg, po administered twice daily cotreated with 100 mg ritonavir and measured after 14 days. It is filed as organism-based. As to conditions: in vivo, 336 h, time 14 day.
Data set [22] in a line: Cytotoxicity against African green monkey Vero E6 cells incubated for 72 hrs by MTS assay. It is filed as cell-based, Vero C1008. The conditions noted are these: chlorocebus sabaeus.
Data set [23] is described as follows: in vitro. The conditions noted are these: hamster, BHK-21 cells.
In data set [24] the test system is SARS-CoV. Nature of the data set: Antiviral activity against SARS-CoV BJ-001 infected in African green monkey Vero E6 cells assessed as reduction in virus induced cytopathic effect by visual observation. It is filed as functional, organism-based. The conditions noted are these: Severe acute respiratory syndrome-related coronavirus, BJ-001, Vero C1008.
The nature of data set [25]: in vitro. The conditions noted are these: rhesus monkey, LLC-MK2 cells.
Data set [26] in a line: Selectivity ratio of CC50 for HAE cells to EC50 for SARS-CoV BJ-001 infected in African green monkey Vero E6 cells. It is filed as toxicity, Vero C1008.
Data set [27] can be described thus: in vitro. The conditions noted are these: hamster, BHK-21 cells. This is another data set of the same source.
Data set [28] deals with Human coronavirus OC43. The experiment in a line: Antiviral activity against HCoV-OC43 infected in BALB/c mouse assessed as protection against virus-induced lethal infection at 15 mg/kg, ip administered for 14 days and measured up to 20 days. The data set is classed as functional. As to conditions: time day <=20.
Data set [29] in a line: Antiviral activity against HCoV-NL63 infected in Rhesus macaque LLC-MK2 cells incubated for 72 hrs by RT-PCR method. It is filed as functional, cell-based. As to conditions: Human coronavirus NL63, LLC-MK2, 72 h.
Data set [30] in a line: in vitro. As to conditions: rhesus monkey, LLC-MK2 cells. This is another data set of the same source.
Data set [31] concerns SARS-CoV. Nature of the data set: Antiviral activity against SARS-CoV BJ-001 infected in African green monkey Vero E6 cells assessed as reduction in virus induced cytopathic effect incubated for 72 hrs by MTS/phenazine methosulfate method. The data set is classed as functional, organism-based. The conditions noted are these: Severe acute respiratory syndrome-related coronavirus, BJ-001, Vero C1008, 72 h.

Broadly, the IC50 is the concentration at which inhibition is half-maximal. The term CC50 denotes the concentration at which the toxic effect on the cells reaches its halfway point. For orientation: EC50 means the midpoint of the concentration-response curve.

Take `NC(=O)c1nc(F)cnc1O`: the Activity is recorded as 11.4% in [1], 91.4% in the data set on SARS-CoV-2 [2] and 100% in the data set with Zaire ebolavirus [8]. In addition, the IC50 in the data set with Zaire ebolavirus [3] was found to be 67 µM; in the data set with SARS-CoV-2 [5] it was 61.8 µM. In addition, in data set [4], the selectivity ratio is above 6.46. Further, the cytotoxic concentration (CC50) in data set [6] is above 400 µM. Besides, the figures for the Time in the data set with SARS-CoV-2 [7] and in the data set with SARS-CoV-2 [9] were 1.75 days and 1.7 days, respectively.
For the compound `Cc1ncc(CO)c(C23OC4(O)CC(O)(CC(O)(C4)O2)O3)c1O`, the half-maximal effective concentration (EC50) in the data set on SARS-CoV [10] was below 10 µM. In data set [11], this compound registered a CC50 of 390 µM. Also, the IC50 stood at 3 µM in data set [12] and 2.3 µM in [13].
`CCN(CC)CCCC(C)Nc1ccnc2cc(Cl)ccc12` (stereo unspecified) [CHLOROQUINE]: the half-maximal cytotoxic concentration (CC50) in data set [14] was 261 µM; in data set [6] it was above 100 µM. In addition, in the data set on SARS-CoV [15], the IC50 worked out at 8.8 µM. Also, the CC50 at 1 h in data set [16] was above 50 µM. In addition, the EC50 in the data set with SARS-CoV-2 [5] came to 1.13 µM; in the data set on SARS-CoV [18] it was 4.1 µM; with Human coronavirus OC43 [19], 0.33 µM. Besides, in data set [17], the half-maximal cytotoxic concentration (CC50) at 72 h was above 128 µM.
`Cc1cccc(C)c1OCC(=O)N[C@@H](Cc1ccccc1)[C@@H](O)C[C@H](Cc1ccccc1)NC(=O)[C@H](C(C)C)N1CCCNC1=O` [LOPINAVIR] gave a CC50 at 1 h in data set [16] above 37.6 µM. The same compound came in with a CC50 at 72 h in data set [17] above 32 µM. The Activity in the data set with SARS-CoV-2 [20] was 62.2%; in data set [21] it was 55.6%.
Regarding `O[C@H]1[C@H]2c3cc4c(cc3CN3CCC(=C[C@@H]1O)[C@H]23)OCO4` [LYCORINE], the CC50 at 72 h in [22] came out at 14.9 µM; in “in vitro [23]” it was 4.37 µM; in “in vitro [25]”, 3.81 µM. The IC50 in the data set on SARS-CoV [24] and in the data set on SARS-CoV [31] was 0.0157 µM throughout. Moreover, the EC50 was 0.15 µM with Human coronavirus OC43 [19] and 0.47 µM in data set [29]. The selectivity ratio amounted to 954 in data set [26], 29.1 in the data set “in vitro [27]” and 8.11 in “in vitro [30]”. For the same compound, in the data set with Human coronavirus OC43 [28], the Activity worked out at 83.3%.
